Series [1] is described as follows: Acute toxicity on mice (per os). To be noted: mouse, in vivo, white mice, per os in 0.5% solution of starch for 5 days; for LD50 at 5 days: oral; for LD50: po. As to the method:
A study of acute toxicity was carried out according to a standard method on white mice. The animals received the preparation per os in a 0.5% solution of starch for 5 days.

The nature of series [2]: Carrying of cations from one aqueous phase to another through a layer of nonpolar organic solvent (lipophil membrane). The series is classed as physicochemical. As to the method: Purification of the prepared compounds is controlled by the TLC method. The meanings of Rf of the claimed compounds were determined using "Sorbfil" plates (Silicagel CTX-1A, UV) (Russia) or "Silufol- UV" plates (Czechoslovakia). The composition and structure of the new compounds were confirmed by element analysis (C,H,N,O analyzer of the Karlo Erba firm) and also IR (Specord-UV-.751R) and PMR spectroscopy (Tesla BS-597A, 100 MHz). An UZDN-2T ultrasound disperser at a frequency of 22 kHz was used to carry out the reaction with ultrasound action. The cation-carrying properties of the claimed compounds were studied in accordance with a generally accepted method, which consists of studying the carrying of a cation from one aqueous phase to another aqueous phase through a layer of a nonpolar organic solvent.

Another series has as its system M. avium. Description: Antimycobacterial activity in vitro, vertical diffusion on dense nutrient. The series is classed as cell-based. The settings on record: Atypical strain M. avium.
A further series has as its system M. bovis. The class given is cell-based. To be noted: Typical strain M. bovis.
The next series deals with H37Rv. Description: Antimycobacterial activity in vitro, vertical diffusion on dense nutrient. The class given is cell-based, mycobacteria. The settings on record: Typical strain H37Rv.
Another series concerns M. smegmatis. Described as above. The class given is cell-based. The settings on record: Atypical strain M. smegmatis.
A further series relates to M.fortuirum. Described as above. The series is classed as cell-based. To be noted: Atypical strain M.fortuirum.
For a further series, the system named is S. epidermides. Description: Antibacterial activity in vitro, preparation in a cavity of nutrient agar. The settings on record: Table 7. The series is classed as cell-based. As for the experimental part:
(§1) The antibacterial activity of the claimed compounds was studied with the method of seeding solutions of the preparation in a cavity. The test-microbe was put in a Petri dish containing a simple nutrient agar. The preparation in an amount of 0.02 ml in necessary concentrations was put in a cavity located in the middle of the Petri dish. The results were taken after 24-hour incubation in a thermostat at 37°C by determination of the zone of delay of growth of the microorganisms along the edges of the cavity.

Another series deals with Lactobacteria. Described as above. The series is classed as cell-based. To be noted: Table 7. As to the method:
as §1

Another series relates to E. coli. The description is as above. The class given is cell-based. As for the experimental part:
as §1

Series [3] concerns Sensitive to streptomycin, rifamycin and isoniazid. Description: Bacteriostatic activity on patient strains (Table 4). The class given is cell-based, mycobacteria of tuberculosis. The settings on record: taken from patients, Central SRI of Tuberculosis RAMS 1997.
The next series concerns Candida Albicans. Description: Antibacterial activity in vitro, preparation in a cavity of nutrient agar. The class given is cell-based. The settings on record: Table 6. As to the method: as §1
A further series deals with S. aureus. The series is described as above. The class given is cell-based. The settings on record: Table 6. As for the experimental part: as §1
The next series concerns P. vulgaris. The description is as above. The series is classed as cell-based. To be noted: Table 6. As to the method:
as §1

The next series deals with strain H37Rv. Description: Therapeutic action on infected guinea pigs. The class given is in vivo. The settings on record: for Average change in weight of pigs during test / Weight of lungs / Weight of spleen: 21 mg/kg (isoniazid equivalent dose), 5 times a week for 60 days.

`O=Cc1ccccc1OCCOCCOc1ccccc1C=O` showed an LD50 at 5 days in series [1] of over 2000 mg/kg.
As to “1,5-Bis(2-phenyl hydrazonomethyl phenoxy)-3-oxapentane”, the Speed of carrying in series [2] (Cation of metal Cu) turned out to be 2.0 mol h^-1 10^-7; in [2] (Cation of metal Fe) it was 60.0 mol h^-1 10^-7; in series [2] (Cation of metal K), 34.5 mol h^-1 10^-7; in series [2] (Cation of metal Na), 28.7 mol h^-1 10^-7.
`O=Cc1ccc(Cl)cc1OCCOc1cc(Cl)ccc1C=O` [1,2-Bis(2-formyl-5-chlorphenoxy)-ethane]: the “Antimycobacterial activity of claimed preparations in tests In vitro” value (shortened to “Antimycobacterial activity”) with M. avium was 25.0 µg/mL; in the series with M. bovis, 0.4 µg/mL; with H37Rv, 0.4 µg/mL; in the series with M. smegmatis it was 6.3 to 12.5 µg/mL; in the series with M.fortuirum it was 25.0 µg/mL.
Regarding `COc1cc(C=NNC(=O)c2ccccc2)ccc1OCCOc1ccc(C=NNC(=O)c2ccccc2)cc1OC` [1,2-Bis(2-methoxy-4-benzoyl hydrazonomethylphenoxy)-ethane], the Inhibiting level in the series on S. epidermides, in the series on Lactobacteria and with E. coli (Table 7) was over 50 µg/mL throughout.
On to `O=C(NN=Cc1c(OCCOc2ccc3ccccc3c2C=NNC(=O)c2ccccc2)ccc2ccccc12)c1ccccc1` [1,2-Bis[2(benzoyl hydrazonomethylnaphthoxy-2)]-ethane], for which the Inhibiting level in the series on S. epidermides, in the series on Lactobacteria and in the series with E. coli (Table 7) was over 50 µg/mL throughout.
On to `O=C(NN=Cc1ccccc1OCCOCCOc1ccccc1C=NNC(=O)c1ccccc1)c1ccccc1` [1,5-Bis(2-benzoyl hydrazonomethylphenoxy)-3-oxapentane], for which the LD50 in series [1] is over 1000 mg/kg.
As for `O=C(NN=Cc1ccccc1OCCOCCOc1ccccc1C=NNC(=O)c1ccncc1)c1ccncc1` [1,5-Bis(2-isonicotinoyl hydrazonomethylphenoxy)-3-oxapentane], the “Antimycobacterial activity” value in the series on M. avium was 25.0 µg/mL; in the series with M. bovis it was 0.01 µg/mL; in the series on H37Rv, 0.01 µg/mL; with M. smegmatis it was 12.5 µg/mL; in the series with M.fortuirum, 12.5 µg/mL. Moreover, the Inhibiting level is 0.58 µg/mL in series [3]; over 500 µg/mL with Candida Albicans; over 500 µg/mL with S. aureus; over 500 µg/mL in the series with P. vulgaris; over 500 µg/mL in the series with E. coli (Table 6).
With `O=Cc1ccccc1OCCOc1ccccc1C=O` [1,8-Bis(2-formylphenoxy)-ethane], the Inhibiting level with S. epidermides, with Lactobacteria and in the series with E. coli (Table 7) was over 200 µg/mL throughout.
For the compound `O=C(NN=Cc1ccccc1OCCOCCOCCOc1ccccc1C=NNC(=O)c1ccncc1)c1ccncc1` [1,8-bis(2-isonicotinoyl hydrazonomethylphenoxy)-3,6-dioxaoctane], the “Average change in weight of pigs during test” value in the series with strain H37Rv worked out at 148.80 ± 29.40 g. For the same compound, the Weight of lungs with strain H37Rv was determined as 4.90 ± 0.90 g. Besides, the Weight of spleen with strain H37Rv turned out to be 8.98 ± 0.15 g. The “Antimycobacterial activity” value stood at 25.0 µg/mL in the series on M. avium, 0.05 µg/mL in the series with H37Rv, 12.5 µg/mL with M. smegmatis and 12.5 µg/mL with M.fortuirum. The LD50 in [1] is over 2000 mg/kg. Also, the Inhibiting level in the series on Candida Albicans, in the series with S. aureus, in the series on P. vulgaris and in the series on E. coli (Table 6) was over 500 µg/mL each time.
As for `O=C(NN=Cc1ccccc1OCCCCOCCCCOc1ccccc1C=NNC(=O)c1cccnc1)c1cccnc1` [1,9-Bis(2-nicotinoyl hydrazonomethylphenoxy)-5-oxanonon], the Inhibiting level in the series on S. epidermides, with Lactobacteria and with E. coli (Table 7) was over 100 µg/mL throughout.
Take `O=C(NN=Cc1ccccc1OCCOCCOCCOCCOc1ccccc1C=NNC(=O)c1ccncc1)c1ccncc1` [1.11-Bis(2-isonicotinoyl hydrazonomethylphenoxy)-3,6,9-trioxaundecane]: the Inhibiting level with S. epidermides, in the series with Lactobacteria and in the series on E. coli (Table 7) was over 50 µg/mL each time.
Consider `C=CCSc1nc2ccc(NC(=O)c3ccccc3Cl)cc2s1` [Compound formula (II), 2-(allylthio)-6-(2-chlorobenzoylamino)benzothiazole, reference compound], for which the “Antimycobacterial activity” value in the series on M. avium is 25.0 µg/mL; in the series on H37Rv, 10.0 µg/mL; in the series on M.fortuirum, 10.0 µg/mL.
As for `NNC(=O)c1ccncc1` [Isoniazid, hydrazide of isonicotinic acid, reference compound], the “Average change in weight of pigs during test” value in the series on strain H37Rv came out at 180.60 ± 18.80 g. In addition, the Weight of lungs in the series on strain H37Rv is 4.49 ± 0.80 g. Also, the Weight of spleen with strain H37Rv was 9.34 ± 0.30 g. In the series on strain H37Rv (after 60 days of treatment), the “tuberculosis changes after the end of the course of treatment” value was “detected as morphological, not as bacteriological”. In addition, the “Antimycobacterial activity” value came to 50.0 µg/mL in the series with M. avium; 0.05 µg/mL in the series on M. bovis; 0.05 µg/mL in the series with H37Rv; 50.0 µg/mL in the series with M. smegmatis; 50.0 µg/mL in the series with M.fortuirum. The Inhibiting level in series [3] amounted to 0.29 µg/mL. In addition, the LD50 at 5 days in series [1] turned out to be 363 mg/kg.
Turning to `O=C(NN=Cc1cccc(OCCOCCOCCOc2cccc(C=NNC(=O)c3cccnc3)c2)c1)c1cccnc1.[Ni]` [[1,8-Bis(3-nicotinoyl hydrazonomethyl phenoxy)-3,6-dioxaoctanejnickel(II)], the Inhibiting level with S. epidermides, with Lactobacteria and with E. coli (Table 7) was over 50 µg/mL each time.

In general, LD50 refers to the dose at which mortality reaches 50%. Low values mean a more toxic substance, high ones a less toxic substance.

The values above are taken from EP1081131A1 (priority 1998, dated 1999).
